Laboratory results reported in PMC12555100, “Dextromethorphan Versus Dextrorphan: A Quantitative Comparison of Antitussive Potency Following Separate Administration of Metabolite” (Journal of Clinical Pharmacology, 2025).

Legend:
[1] = Population pharmacokinetic model (joint parent drug-metabolite model; two-compartment model for DOR given on its own); assay type: in vivo, human; conditions: for Vd/F / Between‐subject variability of V/F: after administration of DEX; for Vd/F: taken as equal for DEX and DOR, read-out: V/F, volume of distribution; for Between‐subject variability of V/F: common to DEX and DOR
Description: (§1) Pharmacokinetic/pharmacodynamic analysis (PKPD) of DEX and DOR was conducted using non‐linear mixed effects modelling with Monolix software, 2024R1 (Lixoft SAS, Antony, France). The analysis followed a sequential approach, where the PK parameters of both compounds were estimated initially, and then these were used alongside the cough data to build the PK/PD model. The model components are described below:
A joint parent drug‐metabolite model[26] (Figure 1) was considered for DEX and DOR following administration of DEX with first‐pass effect and without dose apportionment. Different goodness‐of‐fit factors, such as corrected Bayesian information criterion (BICc), various diagnostic plots, such as visual predictive check used for final model selection. This model assumed a one‐compartment model for both compounds and unidirectional transformation of the parent drug to the metabolite in DEX arm of the study. The distribution of DOR after its administration on its own in a separate arm of the study was considered to follow a two‐compartment model. Inter‐individual variability of PK parameters was assumed to be log‐normally distributed. Proportional error model was used to model the intra‐individual variability.
Figure 1 Schematic representation of the joint parent drug‐metabolite structural model with first‐pass effect and without dose‐apportionment used to describe the pharmacokinetics of dextromethorphan and dextrorphan following administration of dextromethorphan. F, bioavailability of the parent drug; DEX dose, dose of dextromethorphan; ka(DORDEX), absorption constant of dextromethorphan; ka(DOR), absorption constant of dextrorphan; kpm, transformation rate constant from parent to metabolite; VDEX and VDOR_DEX are the volume of the central compartment for the dextromethorphan and dextrorphan, respectively which are considered to be equal; k(DEX), elimination rate constant for dextromethorphan by other pathways; k(DOR), the elimination constant of dextrorphan.
As shown, the concentration of DOR formed by the metabolism of DEX is higher than that of the DOR after preformed DOR is administered on its own. The joint parent drug‐metabolite model with first‐pass effect and without dose apportionment best described the plasma concentration‐time profile of DEX and unconjugated DOR following administration of DEX. The two‐compartment model fitted well to the data of DOR from the administration of preformed DOR. The goodness‐of‐fit of the combined models could be seen in the observed versus predicted plots and visual predictive check graphs of the models (Figure 4). […] Since there was not enough data in the absorption phase, the value of first‐order absorption rate constant for both DEX and preformed DOR was fixed to the reported values of 2.6 h^−1 23. To prevent the identifiability problem, equal extravascular apparent volume of distributions were considered for the parent drug and the metabolite in the joint model. It is important to emphasize that the primary focus of this study is on characterizing the PKPD relationship rather than on developing a detailed PK model. While a mechanistic PK model can provide insights, our primary objective can also be achieved using any empirical PK model, provided it adequately describes the data and supports the PKPD link. The selection of a one‐compartment model for DEX and a two‐compartment model for DOR reflects this practical approach and ensures compatibility with the data under different conditions. The disparity of the disposition model for DOR may indicate that formation kinetics from DEX masks the first phase of distribution when assessing the kinetics of formed DOR, whilst this becomes evident under direct administration of DOR.

guinea pig brain slices = test system: guinea pig brain slices; set-up: method as in PMID 2897648; conditions: cited from earlier work
[2] = test system: cough response to citric acid challenge; assay: PK-PD effect compartment link model of cough response; assay type: in vivo, human; conditions: for Between‐subject variability of ke0: PKPD model
Description: as §1
The cough response (number of coughs) of the placebo arm of the study was described by the following equation that has been reported in a previous study[27] with some minor modifications: EPlacebo=Baselinecough×scale×k×e^−k×t in which EPlacebo is the placebo effect, BaselineCough is the number of coughs at time (t) zero (before administration of any of the drugs or placebo), scale is the constant of the magnitude of the cough response, and k is the first‐order rate constant for nonlinear suppression of the cough response and return to the baseline. The distribution of all parameters was assumed to be log normal. A constant error model was used to describe intra‐individual variability.
An effect compartment model in which ke0 (DEX) and ke0 (DOR) are the effect‐site equilibration rate constants for DEX and DOR, respectively, was used to link the plasma concentrations of DEX and DOR to the combined effect of the two moieties at the same receptor. This combined effect is described by the following equation: E=EPlacebo×1−Imax×CeDEX/IC50+CeDOR×Pot/IC50^n/1+CeDEX/IC50+CeDOR×Pot/IC50^n in which I max is the maximum antitussive effect, IC50 the concentration of drugs that results in half of the maximum effect, Pot is the relative potency of DOR to DEX and CeDEX and CeDOR are the effect compartment concentrations of DEX and DOR, respectively.[23] Log‐normal distribution model was used to describe the inter‐individual variability of the model parameters and intra‐individual variability was described by a constant error model.

Caco‐2 monolayers = conditions: cited from earlier work
[3] = both sexes, human, plasma, oral, population estimate
[4] = population PK model, direct administration of DOR
[5] = population estimate, after direct administration of DOR
[6] = population estimate, common parameter of the combined DEX+DOR effect model

COc1ccc2c(c1)[C@]13CCCC[C@@H]1[C@H](C2)N(C)CC3 [DEX, dextromethorphan]
Vd/F [1, 3]: 4870 L
k el ([1]; both sexes, human, plasma, oral, population estimate, read-out: k(DEX), elimination rate constant for dextromethorphan by other pathways (converted)): 2.78e-05 s⁻¹
Between‐subject variability of k(DEX) ([1]; population PK model): 108 CV%
Between‐subject variability of kpm ([1]; population PK model): 43 CV%
Between‐subject variability of V/F ([1]; population PK model): 48 CV%
kpm, transformation rate constant from parent (dextromethorphan) to metabolite (dextrorphan) ([1]; population estimate): 0.04 h⁻¹
Antiepileptic activity (guinea pig brain slices): possess antiepileptic activity
Between‐subject variability of ke0 [2]: 176 CV%
ke0, transfer rate constant from the central to the effect compartment ([2]; population estimate): 0.08 h⁻¹
Permeability, DEX compared with DOR (Caco‐2 monolayers): comparable permeability

CN1CC[C@@]23CCCC[C@@H]2[C@@H]1Cc1ccc(O)cc13 [DOR, dextrorphan]
Vd/F [1, 3]: 4870 L
Between‐subject variability of k(DOR) ([1]; population PK model): 32 CV%
Between‐subject variability of V/F ([1]; population PK model): 48 CV%
Between‐subject variability of V1/F(DOR) [1, 4]: 32 CV%
Between‐subject variability of k12(DOR) [1, 4]: 196 CV%
Between‐subject variability of k21(DOR) [1, 4]: 299 CV%
k(DOR), elimination constant of dextrorphan ([1]; population estimate): 0.2 h⁻¹
V1/F(DOR), volume of the central compartment [1, 5]: 6984 L
k12(DOR), transfer rate constant central to peripheral [1, 5]: 0.57 h⁻¹
k21(DOR), transfer rate constant peripheral to central [1, 5]: 0.60 h⁻¹
Antiepileptic activity (guinea pig brain slices): possess antiepileptic activity
Between‐subject variability of ke0 [2]: 171 CV%
Maximum cough inhibition (Imax) ([2]; model-based estimate, as percent): 23%
ke0, transfer rate constant from the central to the effect compartment ([2]; population estimate): 0.02 h⁻¹
Relative potency of DOR to DEX ([2]; population estimate, as fraction): 0.26
Imax, the maximum antitussive effect (fraction of the baseline) [2, 6]: 0.23
N, Hill coefficient [2, 6]: 2.8
Permeability, DEX compared with DOR (Caco‐2 monolayers): comparable permeability
